From patent US6903052B2, “Nematicidal compositions and methods” (Divergence, Inc., priority 2002, dated 2005)

How the values were obtained:
[1] = test system: C. elegans; test: Nematicidal activity of emulsions made with Tween-20 (replacing Igepal CO 630) against C. elegans; format: cell-based, Caenorhabditis elegans; settings: Tween-20 emulsion
Experimental: Some nematodes assayed as described in Example 9 lacked tolerance to emulsions made with the surfactant Igepal CO 630. For this reason some assays were repeated with Tween-20-based emulsions.
(§1) Briefly, 1 ml 1% stock solution emulsions were prepared by mixing 10 μl of fatty acid methyl ester with 20 μl of the surfactant Tween-20 in a 1.5 ml eppendorf tube. After careful mixing of fatty acid and Tween-20, 850 μl of ddH20 was added and mixed by gentle pipetting until a homogeneous solution was obtained. Finally, 120 μl of pure isopropanol was added and mixed by gentle pipetting. This stock solution was then used to produce various fatty acid methyl ester dilution emulsions in 24-well plate assays.

[2] = test system: M. incognita; test: Nematicidal activity of fatty acid methyl ester emulsions, spectrum (Example 8); format: cell-based, Meloidogyne incognita; settings: M. incognita 2nd stage juveniles, scored at 48 hours
Experimental: (§2) Briefly, the indicated fatty acid emulsions were added and rapidly mixed by swirling. Nematode viability was scored by visual observation and motility assays 24 hours following addition of emulsions (48 hours for plant parasitic nematodes Meloidogyne and Heterodera species). The fatty acid emulsions tested were methyl esters of nonanoic (pelargonic) acid, ricinelaidic acid, ricinoleic acid, vernolic acid, linoleic acid, and oleic acid. […] Results shown are mean % values obtained from multiple independent experiments
(§3) The Caenorhabiditis elegans were mixed stage populations. Similar effects seen on several other free-living nematode species. The Parastrongyloides trichosuri (parasite of Australian bushtail possum) were dauer-like infective 3rd stage larva. Similar effects are also seen against free-living stages. The Meloidogyne incognita and Meloidogyne javanica (root knot nematode) were 2nd stage juveniles (dauer-like infective stage). The Heterodera glycines (soybean cyst nematode) were 2nd stage juveniles (dauer-like infective stage). Finally, the Pratylenchus scribneri (corn lesion nematode) were mixed stage populations.

[3] = test system: H. glycines; test: as above; format: cell-based, Heterodera glycines; settings: H. glycines 2nd stage juveniles, scored at 48 hours
Experimental: as §2, §3

[4] = test system: free-living, animal parasitic, and plant parasitic nematodes; test: Nematicidal activity across the spectrum of nematodes, summary statement (Example 8); format: cell-based
Experimental: as §2, §3

[5] = test system: P. trichosuri; test: Nematicidal activity of fatty acid methyl ester emulsions, spectrum (Example 8); format: cell-based, Parastrongyloides trichosuri; settings: P. trichosuri infective 3rd stage larva
Experimental: as §2, §3

[6] = test system: M. javanica; test: as above; format: cell-based, Meloidogyne javanica; settings: M. javanica 2nd stage juveniles, scored at 48 hours
Experimental: as §2, §3

[7] = test system: C. elegans; test: as above; format: cell-based, Caenorhabditis elegans; settings: C. elegans mixed stage
Experimental: as §2, §3

[8] = test system: P. scribneri; test: as above; format: cell-based, Pratylenchus scribneri; settings: P. scribneri mixed stage
Experimental: as §2, §3

[9] = test system: tomato seedlings; test: Phytotoxicity evaluation on tomato seedlings; format: in vivo; settings: 250 μl of 1% emulsion applied to stem-media interface of two-week seedlings
Experimental: Sterilized tomato seeds were germinated in magenta jars containing Gamborg's agar media. After two weeks of growth, seedlings were treated with 250 μl of 1% fatty acid methyl ester emulsion (nonanoic acid, ricinoleic acid, ricinelaidic acid, oleic acid, or a control emulsion lacking any fatty acid), applied directly to the stem-media interface. Tomato seedlings were scored at various times after application of emulsions.

[10] = test system: B. malayi; test: Nematicidal activity of tween-based emulsions against microfilarial nematodes; format: cell-based, Brugia malayi
Experimental: To each well, tween-based fatty acid emulsions were added and rapidly mixed by swirling. Nematode microfilaria viability was scored by visual observation of motility at 24 and 48 hours following addition of emulsions. The fatty acid emulsions tested were methyl esters of ricinoleic acid, vernolic acid, ricinelaidic acid, oleic acid, and control emulsions lacking fatty acids. The results of this study are presented in Table 7 as the percentage of non-motile microfilaria 24 hours after inoculation and in Table 8 as the percentage of non-motile microfilaria 48 hours after inoculation

[11] = test system: M. incognita; test: Nematicidal activity of fatty acid methyl ester emulsions against root knot nematode J2 larvae (Example 6); format: cell-based, Meloidogyne incognita; settings: 0.1% emulsion; 48 hours incubation, counted about 24 hours after transfer to plates
Experimental: as §1, with “Fatty acid methyl ester emulsions were prepared following the teachings of Kim et al (U.S. Pat. No. 5,698,592). Briefly,” for “Briefly,”, “Igepal CO 630” for “Tween-20”, “Igepal CO 630,” for “Tween-20,”
(§4) Meloidogyne incognita and javanica were prepared from tomato roots. The roots were bleached and the debris was separated from the J2 larvae and eggs by filtration followed by sucrose density gradient centrifugation. Eggs were hatched over 4 days at 15° C. and the J2 larvae were collected by passage though a filter, followed by centrifugation.
(§5) Nematodes and emulsions were incubated with shaking at room temperature for 48 hours. The contents of each well were transferred to a small spot on individual NGM plates lacking bacteria. About 24 hours after the transfer to plates, worms on and off the inoculation spot were counted as not viable or viable, respectively. Worms were considered viable if they had crawled away from the inoculation spot, or if they were moving. Worms were considered non-viable if they remained at the inoculation spot.

[12] = test system: M. javanica; test: as above; format: cell-based, Meloidogyne javanica; settings: 0.1% emulsion; 48 hours incubation, counted about 24 hours after transfer to plates
Experimental: as §1, with “Fatty acid methyl ester emulsions were prepared following the teachings of Kim et al (U.S. Pat. No. 5,698,592). Briefly,” for “Briefly,”, “Igepal CO 630” for “Tween-20”, “Igepal CO 630,” for “Tween-20,”
as §4, §5

[13] = test system: root knot nematodes (Meloidogyne spp.); test: Nematicidal activity against root knot nematodes, summary statement; format: cell-based; settings: concentration of 0.1%
Experimental: as §4, §5

[14] = test system: C. elegans; test: Nematicidal activity of single fatty acid methyl ester emulsions against Caenorhabditis elegans (Example 4); format: cell-based
Experimental: Mixed stage Caenorhabditis elegans were washed off plates seeded with OP50 bacteria using M9 solution. 250 μl of the M9 solution, which contained about 50 worms, was pipetted into each well of a 24-well plate.
as §1, with “Fatty acid methyl ester emulsions were prepared following the teachings of Kim et al (U.S. Pat. No. 5,698,592). Briefly,” for “Briefly,”, “Igepal CO 630” for “Tween-20”, “Igepal CO 630,” for “Tween-20,”
To each well, fatty acid emulsions or control emulsions were added and rapidly mixed by swirling. Nematode viability was scored by visual observation and motility assays at various time points 24 hours following addition of emulsions or controls. The fatty acid emulsions tested were methyl esters of nonanoic (pelargonic) acid, ricinoleic acid, vernolic acid, linoleic acid, oleic acid, and control emulsions lacking fatty acids.

[15] = 24 hrs post-inoculation, 0.0008%
[16] = 24 hrs post-inoculation, 0.0016%
[17] = 24 hrs post-inoculation, 0.003%
[18] = 24 hrs post-inoculation, 0.005%
[19] = 24 hrs post-inoculation, 0.0067%
[20] = 24 hrs post-inoculation, 0.008%
[21] = 48 hrs post-inoculation, 0.0008%
[22] = 48 hrs post-inoculation, 0.0016%
[23] = 48 hrs post-inoculation, 0.003%
[24] = 48 hrs post-inoculation, 0.005%
[25] = 48 hrs post-inoculation, 0.0067%
[26] = 48 hrs post-inoculation, 0.008%

Row | Structure (SMILES) | % Worm Death (24 hr) ([2]; 0.01% solution) | % Worm Death (24 hr) ([2]; 0.1% solution) | % Worm Death (24 hr) ([3]; 0.001% solution) [%] | % Worm Death (24 hr) ([3]; 0.01% solution) [%] | % Worm Death (24 hr) ([3]; 0.1% solution) [%] | % Worm Death (24 hr) ([5]; 0.01% solution) | % Worm Death (24 hr) ([5]; 0.1% solution) | % Worm Death (48 hr) ([6]; 0.01% solution) [%] | % Worm Death (48 hr) ([6]; 0.1% solution) [%] | % Worm Death (24 hr) ([7]; 0.001% solution) [%] | % Worm Death (24 hr) ([7]; 0.01% solution) [%] | % Worm Death (24 hr) ([7]; 0.1% solution) [%] | % Worm Death (24 hr) ([8]; 0.01% solution) | % Worm Death (24 hr) ([8]; 0.1% solution) | percentage of non-motile microfilaria [10, 15] [%] | percentage of non-motile microfilaria [10, 16] [%] | percentage of non-motile microfilaria [10, 17] [%] | percentage of non-motile microfilaria [10, 18] [%] | percentage of non-motile microfilaria [10, 19] [%] | percentage of non-motile microfilaria [10, 20] [%] | further results
1 | CCCCCCC(O)C/C=C/CCCCCCCC(=O)OC (stereo not drawn) [Ricinelaidic, 12-hydroxy-trans-9-octadecenoic acid methyl ester] | ˜99% | ˜99% | 100 | 100 | 100 | 100% | 100% | 100 | 100 | 75 | 100 | 100 | ˜40% | ˜70% | 0 | 19.1 | 100 | 100 | 100 | 100 | % Worm Death (24 hr) ([1]; 0.001% solution): 60%; % Worm Death (24 hr) ([1]; 0.01% solution): 100%; % Worm Death (24 hr) ([1]; 0.1% solution): 100%; % Worm Death (24 hr) ([2]; 0.001% solution): 97%; Breadth of nematicidal activity (in words) [4]: favorable nematicidal activity against a wide spectrum of divergent nematode genera; Nematicidal activity (in words) ([4]; concentrations of 0.1% and 0.01%): strongly nematicidal; % Worm Death (48 hr) ([6]; 0.001% solution): ˜60%; Visible effects on tomato seedlings [9]: none of the tomatoes treated with the other fatty acid methyl ester emulsions showed visible effects; percentage of non-motile microfilaria [10, 21]: 0%; percentage of non-motile microfilaria [10, 22]: 49.4%; percentage of non-motile microfilaria [10, 23]: 100%; percentage of non-motile microfilaria [10, 24]: 100%; percentage of non-motile microfilaria [10, 25]: 100%; percentage of non-motile microfilaria [10, 26]: 100%; Microfilarialcidal activity (in words) ([10]; tween-based emulsions): strong microfilarialcidal activity
2 | CCCCC[C@H]1O[C@H]1C/C=C\CCCCCCCC(=O)OC [Vernolic Acid (C18-methyl ester), (12,13)-epoxy-cis-9-octadecenoic acid methyl ester] | 73% | 98% | 18 | 20 | 30 | ˜90% | ˜95% | 60 | 90 | 30 | 50 | 80 | <20% | <20% | 0 | 0 | 0 | 66 | 100 | 100 | M. incognita (% not viable) [11]: 100%; M. javanica (% not viable) [12]: 90%; Nematicidal activity (in words) [13]: significant nematicidal activity; Percentage of Worm Death ([14]; 0.003% emulsion, 1 hr): 20%; Percentage of Worm Death ([14]; 0.003% emulsion, 6 hr): 20%; Percentage of Worm Death ([14]; 0.003% emulsion, 24 hr): 20%; Percentage of Worm Death ([14]; 0.1% emulsion, 1 hr): 65%; Percentage of Worm Death ([14]; 0.1% emulsion, 6 hr): 65%; Percentage of Worm Death ([14]; 0.1% emulsion, 24 hr): 75%; percentage of non-motile microfilaria [10, 21]: 0%; percentage of non-motile microfilaria [10, 22]: 0%; percentage of non-motile microfilaria [10, 23]: 5%; percentage of non-motile microfilaria [10, 24]: 100%; percentage of non-motile microfilaria [10, 25]: 100%; percentage of non-motile microfilaria [10, 26]: 100%
